Assays:
[1] = target: T1, Kinesin-like protein KIF11 (Homo sapiens, UniProt P52732); test: Inhibition of Eg5 in human HCT116 cells assessed as inhibition of microtubule-induced ATPase activity after 18 hrs; format: cell-based, HCT-116
T1 sequence (P52732 whole entry): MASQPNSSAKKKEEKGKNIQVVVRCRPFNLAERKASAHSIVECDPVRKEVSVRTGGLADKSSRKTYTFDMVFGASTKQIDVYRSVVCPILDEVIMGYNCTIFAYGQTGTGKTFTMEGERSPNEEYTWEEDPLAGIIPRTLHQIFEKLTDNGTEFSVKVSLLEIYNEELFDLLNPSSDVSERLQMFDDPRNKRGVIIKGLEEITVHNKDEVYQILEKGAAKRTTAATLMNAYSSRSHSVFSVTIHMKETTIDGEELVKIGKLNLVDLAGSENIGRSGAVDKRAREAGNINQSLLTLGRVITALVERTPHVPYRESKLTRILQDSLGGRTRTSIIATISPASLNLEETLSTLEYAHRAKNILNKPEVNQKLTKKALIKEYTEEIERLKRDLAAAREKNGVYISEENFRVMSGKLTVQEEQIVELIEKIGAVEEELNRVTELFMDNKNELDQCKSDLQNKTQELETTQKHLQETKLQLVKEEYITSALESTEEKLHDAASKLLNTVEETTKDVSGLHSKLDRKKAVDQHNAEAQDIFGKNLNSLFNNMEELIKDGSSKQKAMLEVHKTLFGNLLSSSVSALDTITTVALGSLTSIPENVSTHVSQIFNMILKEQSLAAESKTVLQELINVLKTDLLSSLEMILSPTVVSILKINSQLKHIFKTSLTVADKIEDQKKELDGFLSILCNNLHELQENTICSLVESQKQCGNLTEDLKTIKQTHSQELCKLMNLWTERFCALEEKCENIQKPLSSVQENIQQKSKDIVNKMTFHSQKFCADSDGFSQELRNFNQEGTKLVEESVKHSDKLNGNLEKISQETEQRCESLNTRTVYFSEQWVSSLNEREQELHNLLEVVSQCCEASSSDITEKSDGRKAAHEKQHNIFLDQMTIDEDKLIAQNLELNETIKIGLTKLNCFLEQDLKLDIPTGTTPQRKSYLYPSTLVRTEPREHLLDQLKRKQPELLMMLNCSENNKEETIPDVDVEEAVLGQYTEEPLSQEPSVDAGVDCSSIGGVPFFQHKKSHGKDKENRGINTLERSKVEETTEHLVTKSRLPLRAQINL

[2] = target: T1, Kinesin-like protein KIF11; test: Inhibition of Eg5 (unknown origin)
[3] = target: T1, Kinesin-like protein KIF11; test: Inhibition of human recombinant Eg5 ATPase activity expressed in Escherichia coli after 30 mins by malachite green-based spectrophotometric analysis
[4] = target: T2, Kinesin-like protein KIF11 (Homo sapiens) (UniProt P52732); test: Ratio of monastrol IC50 to compound IC50 for Eg5 (unknown origin)
T2 sequence (whole entry): T1 sequence (P52732 whole entry)

[5] = target: T1, Kinesin-like protein KIF11; test: Inhibition of Eg5 assessed as inhibition of microtubule-induced ATPase activity (unknown origin)
[6] = target: T1, Kinesin-like protein KIF11; test: Inhibition of Eg5 basal ATPase activity (unknown origin)
clinical = details: human, in vivo, iv, 16 mg/day
Description: Half life in acute myeloid leukemia patient at 16 mg/day administered as infusion for 1 hr on 3 consecutive days measured after 2 weeks

Homo sapiens [7] = test: Toxicity in iv dosed cancer patient administered as infusion for 1 hr on days 1, 8 and 15 measured after 28 days; format: organism-based; details: in vivo, 672 h
Homo sapiens [8] = test: Toxicity in acute myeloid leukemia patient administered as infusion for 1 hr on 3 consecutive days measured after 2 weeks; format: organism-based; details: in vivo, iv, 336 h
[9] = Half life in cancer patient at 30 mg, iv administered as infusion for 1 hr on days 1, 8 and 15 measured after 28 days; details: human, in vivo
Homo sapiens [10] = test: Toxicity in cancer patient administered as infusion for 1 hr every 21 days; format: organism-based; details: in vivo, iv
[11] = target: T1, Kinesin-like protein KIF11; test: Inhibition of human His-tagged Eg5 (1 to 368 amino acid residues) basal ATPase activity
[12] = Half life in solid tumor patient at 7 mg/m2 administered as infusion for 1 hr per week for 3 weeks; format: ADME, organism-based; details: human, in vivo, iv
Homo sapiens [13] = test: Toxicity in breast cancer patient administered as infusion for 1 hr on day 1 and 15 measured after 28 days; format: organism-based; details: in vivo, iv, 672 h
Homo sapiens [14] = test: Toxicity in prostate cancer patient administered once every 3 weeks; format: organism-based, Prostate gland; details: in vivo, 504 h
[15] = Antitumor activity against breast cancer in patients at 12 mg/m2 administered as 1 hr infusion on day 1 and 15 measured after 28 days; format: functional, Homo sapiens, Breast cancer cell
[16] = Antiproliferative activity against human NCI60 cells
[17] = target: T1, Kinesin-like protein KIF11; test: Inhibition of human Eg5 assessed as inhibition of microtubule-induced ATPase activity
[18] = target: T1, Kinesin-like protein KIF11; test: Inhibition of human Eg5 basal ATPase activity

Structure (SMILES): CC(=O)NC1=NN(C(C)=O)C(C)(c2ccccc2)S1 (centres undefined)
- IC50 [1]: 1300 nM

Structure (SMILES): CCC(c1nc2ccccc2n1Cc1ccccc1)N(CCCN(C)C)C(=O)c1ccc(Br)cc1 (centres undefined)
- IC50 [2]: 40 nM

Structure (SMILES): CON(C)C(=O)N1N=C(c2cc(F)ccc2F)S[C@@]1(CCCN)c1ccccc1 [FILANESIB]
- IC50 [2]: 6 nM

Structure (SMILES): NCCC(=O)N1CCc2cc3c(cc2C1c1cccc(O)c1)OCO3 (centres undefined)
- IC50 [3]: 20 nM
- Ratio IC50 [4]: > 100

Structure (SMILES): O=C1[C@@H]2Cc3c([nH]c4ccccc34)[C@@H](c3cccc(O)c3)N2C(=O)N1Cc1ccccc1
- IC50 [2]: 650 nM

Structure (SMILES): CC1(C)CCC[C@]2(C)O[C@H]3CC[C@@]4(C)[C@@H](CC[C@]5(C)[C@@H]4CC[C@]4(C)c6c(OS(=O)(=O)O)ccc(OS(=O)(=O)O)c6C[C@@H]54)[C@]3(C)CC[C@@H]12 [ADOCIASULFATE-2]
- IC50 [5]: 5300 nM
- IC50 [6]: 3500 nM

Structure (SMILES): Cc1ccc(C(=O)N(CCCN)C(c2nc3snc(C)c3c(=O)n2Cc2ccccc2)C(C)C)cc1 (single isomer, unassigned; (+)) [AZD-4877]
- half-life at 336 h (clinical): 17 h
- MTD (Homo sapiens [7]): 30 mg
- MTD (Homo sapiens [8]): 16 mg/day
- half-life at 672 h [9]: 16 h

Structure (SMILES): Cc1ccc(C(=O)N(CCCN)[C@@H](c2oc3cc(Cl)ccc3c(=O)c2Cc2ccccc2)C(C)C)cc1 [SB-743921]
- MTD (Homo sapiens [10]): 4 mg/m2

Structure (SMILES): O=C1CCCC2=C1[C@H](c1cc(O)ccc1Br)NC(=S)N2
- IC50 [11]: 350 nM

Structure (SMILES): CC1=C(C(=O)Nc2ccc(Cl)cc2)C(c2ccccc2)C2=C(CC(C)(C)CC2=O)N1 (centres undefined)
- IC50 [3]: 100 nM

Structure (SMILES): O=C1CCCC2=C1[C@H](c1cccc(O)c1)NC(=S)N2
- Ratio IC50 [4]: 10

Structure (SMILES): CS(=O)(=O)O.Cc1ccc(C(=O)N(CCCN)[C@@H](c2nc3cc(Cl)ccc3c(=O)n2Cc2ccccc2)C(C)C)cc1 [ISPINESIB MESYLATE]
- half-life [12]: 33 h
- MTD (Homo sapiens [13]): 12 mg/m2
- MTD (Homo sapiens [14]): 18 mg/m2
- Activity [15]: 9%

Structure (SMILES): N[C@@H](CSC(c1ccccc1)(c1ccccc1)c1ccccc1)C(=O)O [S-TRITYL-L-CYSTEINE]
- GI50 [16]: 1300 nM

Structure (SMILES): Cc1cc2c(C(C)C)c(O)c(O)c(C=O)c2c(O)c1-c1c(C)cc2c(C(C)C)c(O)c(O)c(C=O)c2c1O [GOSSYPOL]
- IC50 [3]: 10800 nM

Structure (SMILES): CC(C)(O)[C@@H]1C[C@@H](O)[C@]2(C)[C@H](CC[C@@]3(C)[C@H]2CC[C@H]2Cc4c([nH]c5ccccc45)[C@@]23C)O1 [TERPENDOLE E]
- IC50 [17]: 23000 nM
- IC50 [18]: 23000 nM

Structure (SMILES): O=C(c1ccc(O)cc1)N1CCc2cc3c(cc2C1c1cccc(O)c1)OCO3 (centres undefined)
- IC50 [3]: 40 nM
- Ratio IC50 [4]: > 100

Structure (SMILES): CCOC(=O)C1=C(C)NC(=S)NC1c1cccc(O)c1 (centres undefined) [MONASTROL]
- IC50 [2]: 30000 nM

Structure (SMILES): Cc1ccc(C(=O)N2CCc3cc4c(cc3C2c2cccc(O)c2)OCO4)cc1 (centres undefined)
- IC50 [3]: 60 nM
- Ratio IC50 [4]: > 100
